Experimental findings from patent US8124784B2, “Palladium metal complex” (Nagasaki University, priority 2008, dated 2012) are described below.

This series can be described thus: Solubility of the metal complex A in organic solvents. The format is physicochemical. Here is the method: The solubility of the metal complex A in organic solvents was tested.

In the case of “[Pd2Au2Cl2(μ-dmpz)4(dmpzH)2] [metal complex A]”, the “solubility in organic solvent” value was “insoluble” (acetone); “insoluble” (acetonitrile); “slightly soluble” (benzene); “soluble” (chloroform); “insoluble” (diethyl ether); “insoluble” (ethanol). The “solubility in organic solvent” value is listed as “insoluble” (hexane), “insoluble” (methanol), “soluble” (methylene chloride) and “slightly soluble” (toluene).
